The target in experiment [1] is T1, Deoxynucleoside kinase (Drosophila melanogaster) (UniProt Q9XZT6).
T1 sequence (whole entry): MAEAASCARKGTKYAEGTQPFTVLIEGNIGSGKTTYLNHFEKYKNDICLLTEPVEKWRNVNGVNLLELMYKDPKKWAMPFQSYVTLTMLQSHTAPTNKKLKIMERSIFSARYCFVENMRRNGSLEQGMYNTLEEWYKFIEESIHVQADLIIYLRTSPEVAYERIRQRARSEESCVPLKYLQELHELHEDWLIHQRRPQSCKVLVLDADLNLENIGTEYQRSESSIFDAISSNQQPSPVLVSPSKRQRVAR
Description: Activity at Drosophila melanogaster dNK at 100 uM by spectrophotometry.

Experiment [2] addresses T1, Deoxynucleoside kinase (Drosophila melanogaster). In words: Activity at Drosophila melanogaster dNK at 10 uM by spectrophotometry.

For `Cc1cc2cn([C@H]3CC[C@@H](CO)O3)c(=O)nc2o1`, in experiment [1], the Activity stood at 30%.
Still for that read-out and setting: under `Cc1cc2cn([C@H]3C[C@H](O)[C@@H](CO)O3)c(=O)nc2[nH]1` stands 128%; under `Cc1cc2cn([C@H]3C[C@H](F)[C@@H](CO)O3)c(=O)nc2o1`, 12%.
Consider `Cc1cc2cn([C@H]3C[C@H](O)[C@@H](CO)O3)c(=O)nc2o1`, for which the Activity in experiment [2] amounted to 43%.
The compound `Cc1cc2cn([C@H]3C=C[C@@H](CO)O3)c(=O)nc2o1` registered an Activity in experiment [1] of 330%.
`Cc1cc2cn([C@H]3CC[C@@H](CO)O3)c(=O)nc2[nH]1` gave an Activity in experiment [1] of 2.6%.
Still for that read-out and setting: under `Cc1cc2cn([C@H]3C[C@H](N=[N+]=[N-])[C@@H](CO)O3)c(=O)nc2o1` stands 12%.

The record behind these values is ChEMBL document CHEMBL1156830, “Synthesis of fluorescent nucleoside analogs as probes for 2'-deoxyribonucleoside kinases” (Bioorg Med Chem Lett, 2010).
